This note sets out measurements from patent EP4603504A1, “NOVEL CATHEPSIN K AND L INHIBITORS” (ECOLE POLYTECHNIQUE FEDERALE DE LAUSANNE (EPFL), priority 2024, dated 2025).

Data set [1] has as its system panel of 7 different cysteine cathepsin proteases. Put plainly: FRET assays on a panel of cathepsins (selectivity). The note with it: profiled against five additional cathepsins (Fig. 1). It counts as biochemical. From the text:
The figures show. • Figure 1. […] A schematic representation of the structure of the NNPI is given to the left.

The target in data set [2] is T1, CTSL (Homo sapiens, UniProt P07711).
T1 construct: purchased R&D systems 952-CY-010
T1 sequence (P07711 114-333): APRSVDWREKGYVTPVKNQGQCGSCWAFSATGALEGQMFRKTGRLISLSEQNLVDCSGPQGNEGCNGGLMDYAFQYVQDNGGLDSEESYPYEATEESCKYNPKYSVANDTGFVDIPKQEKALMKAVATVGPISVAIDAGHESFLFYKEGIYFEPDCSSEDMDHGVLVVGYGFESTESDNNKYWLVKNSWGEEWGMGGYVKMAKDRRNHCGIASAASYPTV
Put plainly: FRET assay on cathepsin L (CTSL). The format is biochemical. The note with it: substrate Z-Leu-Arg-AMC, inhibitor preincubated 30 minutes, n=3. As for the experimental part:
(§1) In brief, CTSK or CTSL was diluted to 20 µg/ml or 40 µg/ml respectively, in Assay Buffer (50 mM MES, 5 mM DTT, 1 mM EDTA, 0.005% (w/v) Brij-35, pH 6.0), and incubated on ice for 15 minutes. After activation, CTSK or CTSL was diluted to 0.02 µg/ml in Assay Buffer. The substrate peptide Z-Leu-Arg-AMC (R&D systems, cat #ES008) was then diluted to 20 µM in Assay buffer (40 µM for CTSL).
(§2) Next, 50 µl of the enzyme solution was loaded in a 96-well plate, inhibitors to be tested were added to the enzyme and incubated for 30 minutes, and then the reaction was started by adding 50 µl of the fluorogenic substrate. A substrate blank containing 50 µl of Assay Buffer and 50 µl of substrate without any cathepsin was included. Fluorescent emission was measured with SpectraMax iD3 (Molecular Devices) in kinetic mode for 60 minutes (excitation: 380 nm, emission: 460 nm).

A short description of data set [3]: Solubility (remark in text, no method). It counts as physicochemical.
Data set [4] deals with T1, CTSL. The data set can be described thus: FRET assay cathepsin L. It counts as biochemical. The note with it: result in words, compared with other NNPIs (Fig 2h-j). The method, then: as §1, §2
A library of 32 NNPIs was screened by FRET assay on CTSK and CTSL by using 384-well plates. For each of the amino acid positions from 2 to 7 in the original NNPI-E15 structure, 6 different amino acid substitutions were tested (A, L, T, W, E or R). The final concentrations of enzyme and substrate were the same as the ones described above for the respective FRET assays. The final reaction volume per well was 20 µl. The inhibitor concentration was 30 nM. Fluorescent emission was measured with a BioTek Neo HTS plate reader.

Peptide text beside a SMILES is read from it.

On to `CC[C@H](C)[C@H](NC(=O)[C@@H](NC(=O)/C=C/CNC(=O)[C@H](CC(C)C)NC(=O)[C@H](CCCNC(=N)N)NC(=O)[C@H](CCCNC(=N)N)NC(=O)[C@@H](N)CCCCN)C(C)C)C(=O)N[C@@H](CCCNC(=N)N)C(N)=O` [NNPI-F17, KRRL(Y)VIR] (HELM PEPTIDE1{K.R.R.L.[O=C(/C=C/CN[*:1])[*:2]].V.I.R.[am]}$$$$V2.0; N-terminus and C-terminus assumed), for which the selectivity entry in data set [1] is reported as “good selectivity”.

As usually defined, the IC50 is the concentration that inhibits the measured activity by half. Low values mean greater potency, high ones weaker potency. For the compound `CC(C)C[C@H](NC(=O)[C@H](CCCNC(=N)N)NC(=O)[C@@H](N)CCCCN)C(=O)N[C@@H](Cc1c[nH]c2ccccc12)C(=O)NC/C=C/C(=O)N[C@H](C(=O)N[C@@H](CC(C)C)C(=O)N[C@@H](Cc1c[nH]c2ccccc12)C(N)=O)C(C)C` [NNPI-G14, KRLW(Y)VLW] (HELM PEPTIDE1{K.R.L.W.[O=C(/C=C/CN[*:1])[*:2]].V.L.W.[am]}$$$$V2.0), in data set [1], the selectivity entry is given as “good selectivity”. For the same compound, it took 1.7 nM to reach half-maximal inhibition in data set [2] (IC50).

For the compound “KRLW(Y)VMW [NNPI-G12] [listing 1 of 2 here]”, the solubility result in data set [3] is listed as “poor”.

For the compound “KRLW(Y)VMW [NNPI-G12] [listing 2 of 2 here]”, in data set [4], the “inhibitory potency on CTSL” value is reported as “most potent inhibitor”.
